Laboratory results taken from US4439426A, “Semisynthetic macrolidic antibiotics, intermediate compounds for their preparation and related pharmaceutical compositions containing them” (priority 1981, dated 1984).
Values after ≈ are worked out from the molar mass of the structure shown.

Experiments:
[1] = Stability in acidic environment at 25° C. (half-life of initial microbiological activity); type: physicochemical; conditions: aqueous solution
Procedure: Stability in acidic environnment at 25° C. of the novel
Note: t 1/2 represents the time for reducing to one half the initial powe
of the antibiotic determined by microbiological method through diffusion
on a plate using the test stock Microccocus luteus (Sarcina lutea) ATCC

[2] = tested on: Clostridium perfrigens ATCC 3624 LRP 206; assay: microbe, parasite or virus in culture; type: cell-based; conditions: ATCC3624, solid medium, anaerobic, read-out: Minimum inhibiting concentration
Text: (§1) the bacteriostatic power, expressed as the minimum inhibiting concentration (MIC) against both aerobic and anaerobic, Gram positive and Gram negative, bacterial stocks: the related results are reported in the tables 2 and 3.

Salmonella typhy LRP 8 = assay: microbe, parasite or virus in culture; type: cell-based; conditions: LRP8, solid medium, read-out: Minimum inhibiting concentration
Text: as §1

[3] = Serum concentrations in the rat after oral administration; type: in vivo; conditions: rat, in vivo, po, 100 mg/kg
Procedure: administration of 100 mg/kg per os. The values, at the
several sampling times, correspond to mcg of product per ml of serum*.

[4] = tested on: Staphylococcus aureus ATCC 6538 P LRP 39; assay: Minimum bactericidal concentration (MBC); type: cell-based; conditions: Staphylococcus aureus, ATCC6538, read-out: Minimum bactericidal concentration (MBC)
Text: (§2) the bacterial power, expressed as the minimum bactericidal power (MBC) against some Gram positive aerobic stocks (table 5).

[5] = tested on: Streptococcus pyogenes ATCC 8668 LRP 34; assay: Minimum bactericidal concentration (MBC); type: cell-based; conditions: Streptococcus pyogenes, ATCC8668, read-out: Minimum bactericidal concentration (MBC)
Text: as §2

[6] = tested on: Corynebacterium diphteriae LRP 24; assay: Minimum bactericidal concentration (MBC); type: cell-based; conditions: Corynebacterium, LRP24, read-out: Minimum bactericidal concentration (MBC)
Text: as §2

[7] = tested on: Streptococcus pneumoniae ATCC 6303 LRP 35; assay: Minimum bactericidal concentration (MBC); type: cell-based; conditions: Streptococcus pneumoniae, ATCC6303, read-out: Minimum bactericidal concentration (MBC)
Text: as §2

[8] = tested on: Streptococcus faecalis subs. zymogenes LRP 61; assay: Minimum bactericidal concentration (MBC); type: cell-based; conditions: Enterococcus faecalis, read-out: Minimum bactericidal concentration (MBC)
Text: as §2

Bacillus subtilis LRP 25 = assay: Bacteriostatic power in solid medium (MIC); type: cell-based; conditions: Bacillus subtilis, LRP25, read-out: Minimum inhibiting concentration
In short: (§3)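 Here MIC denotes bacteriostatic potency, determined on aerobic and anaerobic stocks from Gram-positive as well as Gram-negative genera.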

[9] = tested on: Staphylococcus aureus ATCC 14154 LRP 78; assay: Bacteriostatic power in solid medium (MIC); type: cell-based; conditions: Staphylococcus aureus, ATCC14154, read-out: Minimum inhibiting concentration
In short: as §3

[10] = tested on: Streptococcus faecalis LRP 7; assay: Bacteriostatic power in solid medium (MIC); type: cell-based; conditions: Enterococcus faecalis, LRP7, read-out: Minimum inhibiting concentration
In short: as §3

[11] = tested on: Acholeplasma laidlawii ATCC 23206 LRP 204; assay: Bacteriostatic power in solid medium (MIC); type: cell-based; conditions: Acholeplasma laidlawii, ATCC23206; solid medium; read-out: Minimum inhibiting concentration
In short: as §3

[12] = tested on: Staphylococcus aureus ATCC 6538P LRP 39; assay: Bacteriostatic power in solid medium (MIC); type: cell-based; conditions: Staphylococcus aureus, ATCC6538P, read-out: Minimum inhibiting concentration
In short: as §3

[13] = tested on: Neisseria gonorrhoeae ATCC 19424 LRP 214; assay: Bacteriostatic power in solid medium (MIC); type: cell-based; conditions: Neisseria gonorrhoeae, ATCC19424, read-out: Minimum inhibiting concentration
In short: as §3

[14] = tested on: Mycoplasma hominis I ATCC 14027 LRP 211; assay: Bacteriostatic power in solid medium (MIC); type: cell-based; conditions: Metamycoplasma hominis, ATCC14027, read-out: Minimum inhibiting concentration
In short: as §3

[15] = tested on: Haemophilus influenzae ATCC 19418 LRP 213; assay: Bacteriostatic power in solid medium (MIC); type: cell-based; conditions: Haemophilus influenzae, ATCC19418, read-out: Minimum inhibiting concentration
In short: as §3

[16] = tested on: Streptococcus faecalis subsp. zymogenes ATCC 12958 LRP 61; assay: Bacteriostatic power in solid medium (MIC); type: cell-based; conditions: Enterococcus faecalis, ATCC12958, read-out: Minimum inhibiting concentration
In short: as §3

[17] = tested on: Streptococcus pneumoniae ATCC 6303 LRP 53; assay: Bacteriostatic power in solid medium (MIC); type: cell-based; conditions: Streptococcus pneumoniae, ATCC6303, read-out: Minimum inhibiting concentration
In short: as §3

[18] = tested on: Staphylococcus aureus ATCC 6538P LRP 14; assay: Bacteriostatic power in solid medium (MIC); type: cell-based; conditions: Staphylococcus aureus, ATCC6538P, read-out: Minimum inhibiting concentration
In short: as §3

[19] = tested on: Micrococcus luteus ATCC 15957 LRP 193; assay: Bacteriostatic power in solid medium (MIC); type: cell-based; conditions: Micrococcus luteus, ATCC15957, read-out: Minimum inhibiting concentration
In short: as §3

[20] = tested on: Streptococcus pyogenes ATCC 8668 LRP 197; assay: Bacteriostatic power in solid medium (MIC); type: cell-based; conditions: Streptococcus pyogenes, ATCC8668, read-out: Minimum inhibiting concentration
In short: as §3

Shigella sonnei LRP 5 = assay: Bacteriostatic power in solid medium (MIC); type: cell-based; conditions: LRP5, read-out: Minimum inhibiting concentration
In short: as §3

[21] = tested on: Pseudomonas aeruginosa LRP 9; assay: Bacteriostatic power in solid medium (MIC); type: cell-based; conditions: Pseudomonas aeruginosa, LRP9, read-out: Minimum inhibiting concentration
In short: as §3

[22] = tested on: Streptococcus pyogenes ATCC 8668 LRP 34; assay: Bacteriostatic power in solid medium (MIC); type: cell-based; conditions: Streptococcus pyogenes, ATCC8668, read-out: Minimum inhibiting concentration
In short: as §3

[23] = tested on: Streptococcus pneumoniae ATCC 6303 LRP 52; assay: Bacteriostatic power in solid medium (MIC); type: cell-based; conditions: Streptococcus pneumoniae, ATCC6303, read-out: Minimum inhibiting concentration
In short: as §3

[24] = tested on: Corynebacterium diphteriae LRP 24; assay: Bacteriostatic power in solid medium (MIC); type: cell-based; conditions: Corynebacterium, LRP24, read-out: Minimum inhibiting concentration
In short: as §3

[25] = tested on: Bacteroides fragilis ATCC 23745 LRP 205; assay: Bacteriostatic power in solid medium (MIC); type: cell-based; conditions: Bacteroides fragilis, ATCC23745, read-out: Minimum inhibiting concentration
In short: as §3

[26] = tested on: Streptococcus pneumoniae ATCC 6303 LRP 35; assay: Bacteriostatic power in solid medium (MIC); type: cell-based; conditions: Streptococcus pneumoniae, ATCC6303, read-out: Minimum inhibiting concentration
In short: as §3

[27] = tested on: Klelsiella pneumoniae LRP 54; assay: Bacteriostatic power in solid medium (MIC); type: cell-based; conditions: read-out: Minimum inhibiting concentration
In short: as §3

[28] = tested on: Micrococcus luteus ATCC 9341 LRP 6; assay: Bacteriostatic power in solid medium (MIC); type: cell-based; conditions: Micrococcus luteus, ATCC9341, read-out: Minimum inhibiting concentration
In short: as §3

[29] = tested on: Fusobacteriumnecrophroum ATCC 27852 LRP 210; assay: Bacteriostatic power in solid medium (MIC); type: cell-based; conditions: read-out: Minimum inhibiting concentration
In short: as §3

Escherichia coli LRP 50 = assay: Bacteriostatic power in solid medium (MIC); type: cell-based; conditions: Escherichia coli, LRP50, read-out: Minimum inhibiting concentration
In short: as §3

[30] = tested on: Proteus vulgaris ATCC 6380 LRP 13; assay: Bacteriostatic power in solid medium (MIC); type: cell-based; conditions: Proteus vulgaris, ATCC6380, read-out: Minimum inhibiting concentration
In short: as §3

[31] = tested on: Streptococcus faecalis subs. zymogenes ATCC 12958 LRP 61; assay: Bacteriostatic power in liquid medium (MIC); type: cell-based; conditions: Enterococcus faecalis, ATCC12958, read-out: Minimum inhibiting concentration
In short: as §3

[32] = tested on: Staphylococcus aureus ATCC 6538 P LRP 39; assay: Bacteriostatic power in liquid medium (MIC); type: cell-based; conditions: Staphylococcus aureus, ATCC6538, read-out: Minimum inhibiting concentration
In short: as §3

[33] = tested on: Streptococcus pyogenes ATCC 8668 LRP 34; assay: Bacteriostatic power in liquid medium (MIC); type: cell-based; conditions: Streptococcus pyogenes, ATCC8668, read-out: Minimum inhibiting concentration
In short: as §3

[34] = tested on: Corynebacterium diphteriae LRP 24; assay: Bacteriostatic power in liquid medium (MIC); type: cell-based; conditions: Corynebacterium, LRP24, read-out: Minimum inhibiting concentration
In short: as §3

[35] = tested on: Streptococcus pneumoniae ATCC 6303 LRP 35; assay: Bacteriostatic power in liquid medium (MIC); type: cell-based; conditions: Streptococcus pneumoniae, ATCC6303, read-out: Minimum inhibiting concentration
In short: as §3

CC[C@H]1OC(=O)[C@H](C)[C@@H](O[C@H]2C[C@@](C)(OC)[C@@H](O)[C@H](C)O2)[C@H](C)[C@@H](O[C@@H]2O[C@H](C)C[C@H](N(C)C)[C@H]2O)[C@](C)(O)C[C@@H](C)C(=O)[C@H](C)[C@@H](O)[C@]1(C)O [Erythromycin A, reference compound]
half-life ([1]; pH 2): 2 min
half-life ([1]; pH 3): 6 min
MIC [2]: 1.56 µg/mL (≈ 2.13 µM)
MIC (Salmonella typhy LRP 8): 12.5 µg/mL (≈ 17 µM)
concentration at 2 h ([3]; 100 mg/kg per os, 2 hours): 1140 ng/mL
concentration at 0.5 h ([3]; Serum concentration, average): 478 ng/mL
concentration at 1 h ([3]; Serum concentration, average): 534 ng/mL
concentration at 4 h ([3]; Serum concentration, average): 262 ng/mL
concentration at 6 h ([3]; Serum concentration, average): 165 ng/mL
MBC [4]: 1.56 µg/mL (≈ 2.13 µM)
MBC [5]: 0.39 µg/mL (≈ 0.531 µM)
MBC [6]: 0.049 µg/mL (≈ 0.0668 µM)
MBC [7]: 0.097 µg/mL (≈ 0.132 µM)
MBC [8]: 6.25 µg/mL (≈ 8.52 µM)
MIC (Bacillus subtilis LRP 25): 0.049 µg/mL (≈ 0.0668 µM)
MIC [9]: 25 µg/mL (≈ 34.1 µM)
MIC [10]: 0.097 µg/mL (≈ 0.132 µM)
MIC [11]: 0.097 µg/mL (≈ 0.132 µM)
MIC [12]: 0.049 µg/mL (≈ 0.0668 µM)
MIC [13]: 0.049 µg/mL (≈ 0.0668 µM)
MIC [14]: 25 µg/mL (≈ 34.1 µM)
MIC [15]: 3.12 µg/mL (≈ 4.25 µM)
MIC [16]: 0.097 µg/mL (≈ 0.132 µM)
MIC [17]: 0.012 µg/mL (≈ 0.0164 µM)
MIC [18]: 0.049 µg/mL (≈ 0.0668 µM)
MIC [19]: 25 µg/mL (≈ 34.1 µM)
MIC [20]: 0.012 µg/mL (≈ 0.0164 µM)
MIC (Shigella sonnei LRP 5): 12.5 µg/mL (≈ 17 µM)
MIC [21]: 25 µg/mL (≈ 34.1 µM)
MIC [22]: 0.012 µg/mL (≈ 0.0164 µM)
MIC [23]: 0.012 µg/mL (≈ 0.0164 µM)
MIC [24]: 0.006 µg/mL (≈ 0.00818 µM)
MIC [25]: 0.195 µg/mL (≈ 0.266 µM)
MIC [26]: 0.012 µg/mL (≈ 0.0164 µM)
MIC [27]: 12.5 µg/mL (≈ 17 µM)
MIC [28]: 0.006 µg/mL (≈ 0.00818 µM)
MIC [29]: 3.12 µg/mL (≈ 4.25 µM)
MIC (Escherichia coli LRP 50): 6.25 µg/mL (≈ 8.52 µM)
MIC [30]: 25 µg/mL (≈ 34.1 µM)
MIC [31]: 0.39 µg/mL (≈ 0.531 µM)
MIC [32]: 0.097 µg/mL (≈ 0.132 µM)
MIC [33]: 0.024 µg/mL (≈ 0.0327 µM)
MIC [34]: 0.012 µg/mL (≈ 0.0164 µM)
MIC [35]: 0.024 µg/mL (≈ 0.0327 µM)
